Source: patent US10597388B2, “Pyridazinone herbicides” (FMC CORPORATION, priority 2014, dated 2020)

Assays:
Assay in all cases: Test C greenhouse herbicide test, pre- and postemergence
Format in all cases: in vivo
[1] = test system: barnyardgrass (Echinochloa crus-galli)
Outline: (§1)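 Pre- and postemergence greenhouse screen; values are visual control ratings, 0 meaning no effect and 100 complete kill, assigned relative to untreated plants after 13 to 15 d.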

[2] = test system: blackgrass (Alopecurus myosuroides)
Outline: as §1

[3] = test system: corn (Zea mays)
Outline: as §1

[4] = test system: crabgrass, large (large crabgrass, Digitaria sanguinalis)
Outline: as §1

[5] = test system: foxtail, giant (giant foxtail, Setaria faberii)
Outline: as §1

[6] = test system: galium (catchweed bedstraw, Galium aparine)
Outline: as §1

[7] = test system: lambsquarters (Chenopodium album)
Outline: as §1

[8] = test system: nutsedge, yellow (yellow nutsedge, Cyperus esculentus)
Outline: as §1

[9] = test system: oilseed rape (Brassica napus)
Outline: as §1

[10] = test system: pigweed (Amaranthus retroflexus)
Outline: as §1

[11] = test system: ragweed (common ragweed, Ambrosia elatior)
Outline: as §1

[12] = test system: ryegrass, Italian (Italian ryegrass, Lolium multiflorum)
Outline: as §1

[13] = test system: soybean (Glycine max)
Outline: as §1

[14] = test system: velvetleaf (Abutilon theophrasti)
Outline: as §1

[15] = test system: wheat (winter wheat, Triticum aestivum)
Outline: as §1

[16] = Postemergence, 31 g ai/ha, 0 to 100 scale (0 no effect, 100 complete control)
[17] = Postemergence, 125 g ai/ha, scale 0 to 100, 0 is no effect, 100 is complete control
[18] = Postemergence, 250 g ai/ha, scale 0 to 100, 0 no effect, 100 complete control, 13 to 15 d
[19] = Preemergence, 31 g ai/ha, scale 0 to 100, 0 is no effect, 100 is complete control
[20] = Preemergence, 62 g ai/ha, scale 0 to 100, 0 is no effect, 100 is complete control
[21] = Preemergence, 125 g ai/ha, scale 0 to 100, 0 is no effect, 100 is complete control
[22] = Preemergence, 250 g ai/ha, scale 0 to 100, 0 no effect, 100 complete control
[23] = postemergence, 62 g ai/ha, scale 0 to 100, 0 no effect, 100 complete control

## Cc1sc2ccccc2c1-c1c(O)c(Cl)nn(C)c1=O [Compound 89]
[1]; [16]
  Barnyardgrass plant response rating: 5
[1]; [17]
  Plant response rating, Barnyardgrass: 20
[1]; [18]
  Plant response rating, Barnyardgrass: 40
[1]; [19]
  Plant response rating, Barnyardgrass: 5
[1]; [20]
  Plant response rating, Barnyardgrass: 15
[1]; [21]
  Plant response rating, Barnyardgrass: 25
[1]; [22]
  Barnyardgrass plant response rating: 65
[1]; [23]
  Barnyardgrass plant response rating: 15
[2]; [16]
  Blackgrass plant response rating: 0
[2]; [17]
  Plant response rating, Blackgrass: 0
[2]; [18]
  Plant response rating, Blackgrass: 5
[2]; [19]
  Plant response rating, Blackgrass: 5
[2]; [20]
  Plant response rating, Blackgrass: 40
[2]; [21]
  Plant response rating, Blackgrass: 40
[2]; [22]
  Blackgrass plant response rating: 45
[2]; [23]
  Blackgrass plant response rating: 0
[3]; [16]
  Corn plant response rating: 5
[3]; [17]
  Plant response rating, Corn: 10
[3]; [18]
  Plant response rating, Corn: 5
[3]; [19]
  Plant response rating, Corn: 0
[3]; [20]
  Plant response rating, Corn: 0
[3]; [21]
  Plant response rating, Corn: 0
[3]; [22]
  Corn plant response rating: 0
[3]; [23]
  Corn plant response rating: 5
[4]; [17]
  Plant response rating, Crabgrass, Large: 5
[4]; [18]
  Plant response rating, Crabgrass, Large: 10
[4]; [19]
  Plant response rating, Crabgrass, Large: 20
[4]; [20]
  Plant response rating, Crabgrass, Large: 0
[4]; [21]
  Plant response rating, Crabgrass, Large: 25
[4]; [22]
  Crabgrass, Large plant response rating: 75
[4]; [23]
  Crabgrass, Large plant response rating: 5
[5]; [17]
  Plant response rating, Foxtail, Giant: 20
[5]; [18]
  Plant response rating, Foxtail, Giant: 30
[5]; [19]
  Plant response rating, Foxtail, Giant: 10
[5]; [20]
  Plant response rating, Foxtail, Giant: 60
[5]; [21]
  Plant response rating, Foxtail, Giant: 65
[5]; [22]
  Foxtail, Giant plant response rating: 75
[5]; [23]
  Foxtail, Giant plant response rating: 10
[6]; [17]
  Plant response rating, Galium: 95
[6]; [18]
  Plant response rating, Galium: 95
[6]; [19]
  Plant response rating, Galium: 95
[6]; [20]
  Plant response rating, Galium: 98
[6]; [21]
  Plant response rating, Galium: 98
[6]; [22]
  Galium plant response rating: 98
[6]; [23]
  Galium plant response rating: 95
[7]; [17]
  Plant response rating, Lambsquarters: 100
[7]; [18]
  Plant response rating, Lambsquarters: 100
[7]; [19]
  Plant response rating, Lambsquarters: 40
[7]; [20]
  Plant response rating, Lambsquarters: 85
[7]; [21]
  Plant response rating, Lambsquarters: 98
[7]; [22]
  Lambsquarters plant response rating: 90
[7]; [23]
  Lambsquarters plant response rating: 90
[8]; [17]
  Plant response rating, Nutsedge, Yellow: 70
[8]; [18]
  Plant response rating, Nutsedge, Yellow: 75
[8]; [19]
  Plant response rating, Nutsedge, Yellow: 60
[8]; [20]
  Plant response rating, Nutsedge, Yellow: 75
[8]; [21]
  Plant response rating, Nutsedge, Yellow: 80
[8]; [22]
  Nutsedge, Yellow plant response rating: 90
[8]; [23]
  Nutsedge, Yellow plant response rating: 60
[9]; [17]
  Plant response rating, Oilseed Rape: 0
[9]; [18]
  Plant response rating, Oilseed Rape: 0
[9]; [19]
  Plant response rating, Oilseed Rape: 0
[9]; [20]
  Plant response rating, Oilseed Rape: 0
[9]; [21]
  Plant response rating, Oilseed Rape: 30
[9]; [22]
  Oilseed Rape plant response rating: 90
[9]; [23]
  Oilseed Rape plant response rating: 0
[10]; [17]
  Plant response rating, Pigweed: 80
[10]; [18]
  Plant response rating, Pigweed: 95
[10]; [19]
  Plant response rating, Pigweed: 95
[10]; [20]
  Plant response rating, Pigweed: 100
[10]; [21]
  Plant response rating, Pigweed: 100
[10]; [22]
  Pigweed plant response rating: 100
[10]; [23]
  Pigweed plant response rating: 75
[11]; [17]
  Plant response rating, Ragweed: 90
[11]; [18]
  Plant response rating, Ragweed: 98
[11]; [19]
  Plant response rating, Ragweed: 30
[11]; [20]
  Plant response rating, Ragweed: 80
[11]; [21]
  Plant response rating, Ragweed: 80
[11]; [22]
  Ragweed plant response rating: 90
[11]; [23]
  Ragweed plant response rating: 90
[12]; [17]
  Plant response rating, Ryegrass, Italian: 75
[12]; [18]
  Plant response rating, Ryegrass, Italian: 80
[12]; [19]
  Plant response rating, Ryegrass, Italian: 20
[12]; [20]
  Plant response rating, Ryegrass, Italian: 80
[12]; [21]
  Plant response rating, Ryegrass, Italian: 90
[12]; [22]
  Ryegrass, Italian plant response rating: 90
[12]; [23]
  Ryegrass, Italian plant response rating: 75
[13]; [17]
  Plant response rating, Soybean: 0
[13]; [18]
  Plant response rating, Soybean: 0
[13]; [19]
  Plant response rating, Soybean: 0
[13]; [20]
  Plant response rating, Soybean: 0
[13]; [21]
  Plant response rating, Soybean: 0
[13]; [22]
  Soybean plant response rating: 5
[13]; [23]
  Soybean plant response rating: 0
[14]; [17]
  Plant response rating, Velvetleaf: 75
[14]; [18]
  Plant response rating, Velvetleaf: 80
[14]; [19]
  Plant response rating, Velvetleaf: 70
[14]; [20]
  Plant response rating, Velvetleaf: 80
[14]; [21]
  Plant response rating, Velvetleaf: 90
[14]; [22]
  Velvetleaf plant response rating: 85
[14]; [23]
  Velvetleaf plant response rating: 75
[15]; [17]
  Plant response rating, Wheat: 0
[15]; [18]
  Plant response rating, Wheat: 0
[15]; [19]
  Plant response rating, Wheat: 0
[15]; [20]
  Plant response rating, Wheat: 0
[15]; [21]
  Plant response rating, Wheat: 0
[15]; [22]
  Wheat plant response rating: 0
[15]; [23]
  Wheat plant response rating: 0
